Experiments:
[1] = system: nasal mucus secretion; test: Range-finding study of CPS-125, Up-Down method, nasal mucus secretion as endpoint; format: in vivo, human
Description: The recognition that inhibition of mucus hypersecretion might be a valuable and unique pharmacological attribute of TRPM8 agonists prompted the applicant to re-examine such compounds in his inventory. CPS-125 was described by Wei in U.S. Pat. No. 7,417,048 (August 2008), and its structure is in Table 10. This molecule incorporates a sulfamoyl group to increase water solubility and is sulfadiazine coupled to p-menthanecarboxamide. In a range-finding study, CPS-125 was suspended in 1% Ethanol/2% Polysorbate 80/saline and titrated using the Up-Down method of Dixon (Annu. Rev. Pharmacol. Toxicol. 20:441-462.1980) with nasal mucus secretion as the endpoint. The effective concentration for reducing secretions by +80% was 8 mg/ml of CPS-125. […] Such heterocyclic structures include pyrrole, furan, oxane, thiophene, thioxazole, and oxazole derivatives.
CPS-125 was active when administered as drops or in a manually activated spray. The nose is pinched and released after instilling 0.3 to 0.5 mL into the nostrils. After pinch and release, the reflex sniff or snort enhances delivery of the drops to the ostiomeatal complex. Using a power-assisted nebulizer enhances delivery of CPS-125. CPS-125's molecular weight of 416 Daltons is the highest of the tested compounds. Normally, large lipophilic molecules are not expected to penetrate secretions to reach target. Apparently, the sulfamoyl group confers the qualities of penetration, stability, and retention to make it a viable lead candidate for inhibition of mucus hypersecretion.

[2] = system: ostiomeatal complex; test: Case studies: nebulized cooling agent in subjects with rhinitis and rhinosinusitis; format: in vivo, human; details: NasoNeb delivery in subjects with rhinosinusitis
Description: Eight subjects with rhinitis and rhinosinusitis volunteered to test cooling agents delivered with the NasoNeb® nebulizer (FIG. 3). The results were clear, robust, and evident. No statistical analysis was necessary. In a 3 to 5-day course of nebulization t.i.d., all subjects reported the ability to manage and control stuffed-up breathing in their activities. All reported comfortable sleep. The sounds of sniffling and congestion of the nose (“sniffles”), snorting, or gurgling were still present, but to a lesser degree. The subject felt it was easier to blow out liquids from the nasal cavity onto a tissue, and the volume and frequency of blowing decreased. Viscous yellow mucus was less in volume and density. The number of wipes deposited daily into a waste basket decreased by >50%. The subjects-were cheerful and enthusiastic because nasal discomfort was under control. As one subject remarked: “The stuffed-up nose problem is now history!” Severat of these cases are reported below as “Case Studies.”
The subject was given a NasoNeb® nebulizer (unavailable in China) and five individual bottles containing 15 mL of a 1% GlyOiPr solution (suspended in 2% Tween 80, 5% ethanol, and 92% water). They were shown how to load the NasoNeb canister with about 2 mL of liquid and activate the device for a 3-second dose into each nostril. The recommended dosage was three times a day, starting in the morning and at about 6-hour intervals, and for five days.
The subject agreed to using the NasoNeb nebulizer with a cooling agent. They were given a NasoNeb nebulizer and three bottles, each containing 15 ml of a 1% GlyOiPr solution (suspended in 2% Tween 80, 5% ethanol, and 92% water). They were shown how to load the NasoNeb canister with about 2 mL of liquid and activate the device for a 3-second dose into each nostril. The recommended dosage was three times a day, starting in the morning and at about 6-hour intervals, and for five days. After a 5-day trial, the subject noted a significant improvement in sleep and comfortable breathing. […] Their headaches were gone, and their appetite improved. They were advised to continue using the Nebulizer/coolant for another week and then on an as-needed basis. Their family has noticed that the subject has become less withdrawn, more engaging, and interested in their surroundings.
The subject volunteered for a trial with GlyOiPr. They were given a NasoNeb® machine and a plastic squeeze bottle containing 50 mL of GlyOiPr at 3 mg/mL suspended in 1% ethanol/2% polysorbate 80. They learned how to load the canister and activate the pump. Then, they were instructed to rinse their nose thoroughly first thing in the morning and then use the Nebulizer at 5 sec per nostril to deliver the solution. The procedure was to be repeated at 2 hours and 5 hours later to total three daily activations. The subject was interviewed after dosing for three days. They said breathing was much easier at night after the dosing, and they slept well. Nasal secretions were still present but less in volume. […] They were encouraged to use the Nebulizer as needed but not to exceed three daily doses. Three weeks after the start of the experiment, they reported that they were in complete control of their rhinitis. They would do a single dose at night before sleep and one in the morning when needed. They no longer felt congested, and the headaches were gone. The slimy phlegm in the nostrils was gone, and crusting was absent. Their nose felt clean. Their social life improved.
Their main complaint was episodes at night when they would wake up and not be able to breathe comfortably. Sleep apnea and lung disorders were ruled out, and the diagnosis was rhinosinusitis. This was confirmed by a computerized tomography scan and endoscopic examination by a qualified ENT specialist. They agreed to test the preferred embodiments GlyOnPr, GlyOiPr, D-Ala-OnPr, and D-Ala-OiPr systematically, one after the other.

[3] = system: ocular margins; test: Cooling duration bioassay on eyelids/ocular margins; format: in vivo, human; details: for Eyelids/Ocular Surface: Table 6, cooling duration, non-keratinized; for Ocular Surface: Table 7, Gly esters
Description: (§1) FIG. 1. Comparison of cooling duration of various p-menthanecarboxamide analogs on philtrum skin versus ocular margins. The philtrum skin is keratinized, but the ocular margins are not. The test substances numbered 1 to 11 are: D-Ala-OiPr, Gly-OiPr, D-Ala-OEt, D-Ala-OMe, D-Ala-GlynPr, GlynPr, D-Ala-OnBu, GlynBu, GlyOEt, L-Ala-OEt, and N-Me-D-Ala-OEt, respectively. Two outliers (1 and 2) were identified as preferred embodiments because they preferentially cool the ocular margins. The nasal cavity surfaces like the ocular margins are not keratinized.
(§2) Cooling agents have been assayed in various ways depending on intended use. For example, for the skin the test substance can be applied on philtrum skin, using descriptions of coolness on a scale of 0 to 3. For the ocular surface, the active ingredient can be applied to the closed eyelids using a wipe. In the oral cavity, drug applications are on the posterior dorsal surface of the tongue. For the oropharyngeal surface, the cooling agent may be applied as an orally disintegrating tablet. The ability of a cooling agent to antagonize a noxious stimuli may also be tested, using nociception from citric acid or chili pepper sauce. Responses are usually measured using a Visual Analog Scale with a numerical rating. For nasal responses, however, such procedures have not been standardized. Some endpoints to consider are open and comfortable breathing, the presence or absence of sniffles, and the secretion of phlegm.

[4] = system: philtrum skin; test: Cooling duration bioassay on philtrum skin; format: in vivo, human
Description: as §1, §2

[5] = system: nasal cavity; test: Nebulizer screening of TRPM8 agonists for sensations in the nasal cavity; format: in vivo, human; details: NasoNeb nebulizer, 3 to 5 sec per nostril
Procedure: Formulations for nebulization with NasoNeb® used a standard recipe of (Table 8): 1% of the active ingredient (1 to 10 mg/mL), 2% Tween 80 (Polysorbate 80), 1 to 5% ethanol, and made up to 100% with water. The mixture is centrifuged in a FlackTek, Inc., Speedmixer for at least 10 min at 3000 rpm. The Speedmixer spins the sample in 3 dimensions. The result is a white homogeneous liquid suspension with some of the solids now dissolved. For dosing, ˜2 to 3 mL is loaded into the canister of the nebulizer. The nebulizer nozzle tip is placed in the nostril and activated by pressing a button for 3 to 5 sec using a clock timer. […] For D-Ala-OiPr a 5-sec activation will deliver 2*0.73 mL*2 mg/ml, or a total dose of 3 mg per nose. The nasal cavity is relatively tolerant to exogenous agents with irritant properties, as many rinses are used for rhinitis and sinusitis. For some p-menthanecarboxamide analogs, a 2% (20 mg/mL) solution is possible and contemplated. An ideal agent reproduces a comfortable cooling or sensations of negative heat flux in the nasal cavity. […] Heat flux refers to the rate of heat transfer per unit area. The sinonasal cavity mucosa differs from philtrum skin and ocular margins in histology, so the choice of the right molecule must be made by experiment. The TRPM8 agonists were chosen for screening using a nebulizer for delivery. The NasoNeb system is powerful and effective for the OMC (FIG. 3). The delivery time per nostril in three to five seconds. […] These parameters were estimated in the initial trials: • Onset and offset of cooling sensations in the nasal cavity. • The intensity and quality of the cooling sensations in the nasal cavity. • Presence of effects such as sneezing or cough after dosing. • Degree of nasal stuffiness on a scale of 0 to 5. • Degree of rhinorrhea and phlegm in nasal secretions. • Questions regarding comfort and sleep at night.

[6] = target: T1, hTRPM8 channel (Homo sapiens, UniProt Q7Z2W7); test: TRPM8 receptor assay, calcium entry (Fluo-8, FLIPR) in transfected CHO cells; format: cell-based; details: for Potency Relative to L-menthol: ratio of TRPM8 EC50 values, menthol = 1.0
T1 construct: host or cells: CHO cells
T1 sequence (Q7Z2W7 whole entry): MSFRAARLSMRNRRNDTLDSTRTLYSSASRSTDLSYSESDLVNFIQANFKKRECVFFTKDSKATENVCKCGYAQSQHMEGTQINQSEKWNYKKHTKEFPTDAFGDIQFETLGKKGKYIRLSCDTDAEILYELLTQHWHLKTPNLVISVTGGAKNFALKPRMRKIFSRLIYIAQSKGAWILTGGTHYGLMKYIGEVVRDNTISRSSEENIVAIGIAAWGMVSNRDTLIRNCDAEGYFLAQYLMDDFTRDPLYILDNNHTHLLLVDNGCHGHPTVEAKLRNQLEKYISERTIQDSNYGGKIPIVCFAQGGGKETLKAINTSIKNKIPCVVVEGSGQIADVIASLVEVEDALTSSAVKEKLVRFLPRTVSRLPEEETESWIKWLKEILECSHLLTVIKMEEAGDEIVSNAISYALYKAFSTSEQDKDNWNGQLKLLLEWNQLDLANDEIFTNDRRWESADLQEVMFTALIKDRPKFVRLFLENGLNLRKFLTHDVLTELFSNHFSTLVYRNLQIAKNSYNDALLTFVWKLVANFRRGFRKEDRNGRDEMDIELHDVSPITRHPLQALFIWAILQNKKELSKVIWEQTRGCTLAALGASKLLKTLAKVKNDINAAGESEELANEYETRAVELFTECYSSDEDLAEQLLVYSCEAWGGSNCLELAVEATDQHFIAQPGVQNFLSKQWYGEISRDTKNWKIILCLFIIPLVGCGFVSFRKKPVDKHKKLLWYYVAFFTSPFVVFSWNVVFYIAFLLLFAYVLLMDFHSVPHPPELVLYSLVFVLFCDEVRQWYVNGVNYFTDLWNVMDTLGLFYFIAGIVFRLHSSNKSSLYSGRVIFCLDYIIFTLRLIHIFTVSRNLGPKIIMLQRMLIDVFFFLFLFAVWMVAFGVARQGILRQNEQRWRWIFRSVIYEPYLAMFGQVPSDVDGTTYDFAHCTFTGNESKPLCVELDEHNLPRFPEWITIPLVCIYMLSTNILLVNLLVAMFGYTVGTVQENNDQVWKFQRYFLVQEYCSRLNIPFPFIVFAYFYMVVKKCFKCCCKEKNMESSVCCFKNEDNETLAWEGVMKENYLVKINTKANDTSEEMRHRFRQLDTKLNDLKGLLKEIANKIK
Description: FIG. 4. Agonist activities of TRPM8 analogs. […] The relative fluorescence (RF) unit on the ordinate represents calcium entry into transfected cells. […] The structures of these compounds are in Table 4.
The applicant has synthesized and examined a series of p-menthanecarboxamides conjugated to amino acid esters. […] This class of molecules is called N-alkylcarbonyl-amino acid esters. GlyOiPr is a p-menthanecarboxamide conjugate of glycine isopropyl (iPr) ester. It is similar in structure to WS-5, a cooling agent used as a food additive. WS-5 is the p-menthane-glycine ethyl (Et) ester, or GlyOEt. […] These in vitro effects were measured in CHO cells transfected with the hTRPM8 channel. Receptor activity was quantified using a Fluo-8 calcium kit and a Fluorescence Imaging Plate Reader ([…]™).

[7] = system: oropharyngeal surface; test: Bioassay on oropharyngeal surface; format: in vivo, human; details: Table 7; grades 0, ++ without key
Description: as §2

[8] = system: oral cavity; test: Chili-pepper sauce test (oral cavity); format: in vivo, human; design: scale not given here; details: Table 6; grades 0, +, ++ without key
Description: as §2

[9] = target: T2, TRPV1 (Homo sapiens, UniProt Q8NER1); test: TRPV1 specificity assay in transfected cells; format: cell-based; details: FIG. 5; capsaicin positive control
T2 construct: expressed in transfected cells
T2 sequence (Q8NER1 whole entry, species assumed): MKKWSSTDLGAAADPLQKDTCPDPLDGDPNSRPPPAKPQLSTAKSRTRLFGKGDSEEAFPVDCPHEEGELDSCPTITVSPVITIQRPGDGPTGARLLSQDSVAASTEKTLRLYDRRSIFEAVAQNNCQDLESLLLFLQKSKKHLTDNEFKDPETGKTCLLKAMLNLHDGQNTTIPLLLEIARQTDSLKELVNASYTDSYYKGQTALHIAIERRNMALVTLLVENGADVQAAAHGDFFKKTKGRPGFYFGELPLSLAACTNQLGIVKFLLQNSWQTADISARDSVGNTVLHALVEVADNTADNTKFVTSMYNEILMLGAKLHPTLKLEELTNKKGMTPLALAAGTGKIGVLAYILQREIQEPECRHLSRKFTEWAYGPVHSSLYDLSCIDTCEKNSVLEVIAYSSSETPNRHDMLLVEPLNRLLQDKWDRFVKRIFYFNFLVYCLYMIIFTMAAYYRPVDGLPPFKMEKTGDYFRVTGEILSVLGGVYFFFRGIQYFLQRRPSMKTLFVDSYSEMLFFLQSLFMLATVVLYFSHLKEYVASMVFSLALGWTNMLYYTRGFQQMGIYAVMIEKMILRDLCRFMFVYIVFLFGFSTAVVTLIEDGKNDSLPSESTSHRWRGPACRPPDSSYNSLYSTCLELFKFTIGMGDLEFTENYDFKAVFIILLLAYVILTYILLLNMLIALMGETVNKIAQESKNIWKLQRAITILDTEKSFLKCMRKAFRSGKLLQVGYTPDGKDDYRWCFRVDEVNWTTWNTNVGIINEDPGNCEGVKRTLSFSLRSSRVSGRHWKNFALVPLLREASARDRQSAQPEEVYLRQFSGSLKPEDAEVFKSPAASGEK

[10] = Table 6, cooling duration, keratinized skin

| SMILES | Relief of stuffiness and breathing [2] | Eyelids/Ocular Surface [3] | Philtrum Skin [4, 10] | Sensory effects after delivery into the nasal cavity [5] | Potency Relative to L-menthol [6] | Oropharyngeal Surface [7] | Ocular Surface [3] | Philtrum Skin ([4]; Table 7, Gly esters) | Chili-Pepper Sauce Test [8] | other results |
| --- | --- | --- | --- | --- | --- | --- | --- | --- | --- | --- |
| CC(C)[C@@H]1CC[C@@H](C)C[C@H]1C(=O)Nc1ccc(S(=O)(=O)Nc2ncccn2)cc1 [CPS-125, (1R,2S,5R)-2-Isopropyl-5-methyl-cyclohexanecarboxylic acid [4-(pyrimidin-2-ylsulfamoyl)-phenyl]-amide] | – | – | – | – | – | – | – | – | – | Activity when administered as drops or in a manually activated spray ([1]; 0.3 to 0.5 mL into the nostrils, pinch and release): active; Duration of action among the 25+ compounds tested ([1]; in vivo): longest duration of action; Effective concentration for reducing secretions by +80% ([1]; suspended in 1% Ethanol/2% Polysorbate 80/saline, Up-Down method of Dixon): 8 mg/mL |
| CCCOC(=O)[C@@H](C)NC(=O)[C@@H]1C[C@H](C)CC[C@H]1C(C)C [D-Ala-OnPr, (R)-2-[((1R,2S,5R)-2-isopropyl-5-methyl-cyclohexanecarbonyl)-amino]-propionic acid n-propyl ester] | provided relief | 65 min | 108 min | Strong penetrating cool at 3 mg/mL. Excellent for viral ARS. | – | – | – | – | – | – |
| CCOC(=O)CNC(=O)[C@@H]1C[C@H](C)CC[C@H]1C(C)C [GlyOEt, [((1R,2S,5R)-2-isopropyl-5-methyl-cyclohexanecarbonyl)-amino]-acetic acid ethyl ester, reference compound] | – | 15 min | 24 min | – | 10.6 | 0 | 15 min | 24 min | 0 | Increase of cooling on raising the concentration ([3]; from 1 mg/ml to 2 mg/ml): 15 min; Increase of cooling on raising the concentration ([3]; from 1 mg/ml to 5 mg/ml): 22 min |
| CCCCOC(=O)CNC(=O)[C@@H]1C[C@H](C)CC[C@H]1C(C)C [GlyOnBu, [((1R,2S,5R)-2-isopropyl-5-methyl-cyclohexanecarbonyl)-amino]-acetic acid n-butyl ester] | – | 35 min | 38 min | – | 2.8 | 0 | 35 min | 38 min | 0 | EC50 ([6]; CHO cells transfected with hTRPM8, Fluo-8 calcium kit, FLIPR): 1360 nM |
| CCCOC(=O)CNC(=O)[C@@H]1C[C@H](C)CC[C@H]1C(C)C [GlyOnPr, [((1R,2S,5R)-2-isopropyl-5-methyl-cyclohexanecarbonyl)-amino]-acetic acid n-propyl ester] | provided relief | 54 min | 42 min | About the same duration of action as GlyOiPr, but less refreshing. | – | 0 | 54 min | 42 min | 0 | – |
| COc1cc(CNC(=O)CCCC/C=C/C(C)C)ccc1O [capsaicin, reference compound] | – | – | – | – | – | – | – | – | – | Response of cells transfected with TRPV1 [9]: respond |
